Test results from patent US9834754B2, “Populations of hematopoietic progenitors and methods of enriching stem cells therefor” (University Health Network, priority 2011, dated 2017).

Tests used:
Format in all cases: cell-based, human
[1] = test system: H1 hESCs differentiated as embryoid bodies (EBs); test: Hematopoietic colony assay of hESC-derived EBs
Description: (§1) The hESC line H1 (Thomson et al., 1998) and the reprogrammed human iPS cell line (MSC-iPS1; (Park et al., 2008)) were used in this study. They were maintained on irradiated mouse embryonic fibroblasts in hESC media as described previously (Kennedy et al., 2007). Prior to differentiation, the cells were feeder-depleted by culturing on matrigel (BD Biosciences, Bedford, Mass.) in hESC media for 24 to 48 hours. To generate EBs, hPSCs were treated with collagenase B (1 mg/ml; Roche, Indianapolis, Ind.) for 20 minutes followed by a short trypsin-EDTA (0.05%) step. Cells were gently scraped with a cell scraper to form small aggregates (10-20 cells). Aggregates were resuspended in StemPro-34 (Invitrogen), supplemented with penicillin/streptomycin (10 ng/mL), L-glutamine (2 mM), ascorbic acid (1 mM), monothioglycerol (MTG, 4×10^−4M; Sigma), and transferrin (150 μg/mL). BMP-4 (10 ng/mL), bFGF (5 ng/mL), Activin A, 6 μM SB-431542, VEGF (15 ng/mL), Dkk (150 ng/mL), IL-6 (10 ng/mL), IGF-1 (25 ng/mL), IL-11 (5 ng/mL), SCF (50 ng/mL), EPO (2 U/mL final), TPO (30 ng/mL), IL-3 (30 ng/mL) and Flt-3L (10 ng/mL) were added as indicated. Cultures were maintained in a 5% CO2/5% O2/90% N2 environment for the first 8 days and then transferred to a 5% CO2/air environment. All recombinant factors are human and were purchased from R&D Systems (Minneapolis, Minn.).
Analysis of hematopoietic colony potential was performed by plating either 5×103-2.5×10^4 sorted cells or 2.5×104-5.0×104 unfractionated EB populations in 1% methylcellulose containing specific cytokines as described in detail previously (Kennedy et al., 2007). Colonies consisting of erythroid, erythroid/myeloid and myeloid (either macrophage or mast cell) cells were quantified after 10-14 days.

[2] = test system: phospho-SMAD2 (Activin/nodal signaling); test: Western blot / densitometry of phospho-Smad2 in day 2 EBs; details: 30 minutes treatment, FIG. 4B
Text: Thirty minutes after the addition of DMSO, Activin A, and/or SB at day 2 of differentiation, wells were harvested and lysed on ice using RIPA buffer. Proteins were separated by SDS-PAGE, transferred onto nitrocellulose membranes and probed overnight with Smad2 (Cell Signaling, 1:1000) and phospho-Smad2 antibodies (Millipore, 1:1000, […]/467). Membranes were scanned using the LI-COR Biosciences Odyssey imaging system.

[3] = test system: CD34+CD43− cells isolated from Activin A induced or SB-treated EBs; test: T lymphoid precursor frequency analysis (limiting dilution assay on OP9-DL4 cells); details: limiting dilution analyses, day 9 CD34+ population
Description: as §1, with “BMP-4 (10 ng/mL), bFGF (5 ng/mL), Activin A, 6 μM SB-431542, VEGF (15 ng/mL), Dkk (150 ng/mL), IL-6 (10 ng/mL), IGF-1 (25 ng/mL), IL-11 (5 ng/mL), SCF (50 ng/mL), EPO (2 U/mL final), TPO (30 ng/mL), IL-3 (30 ng/mL) and Flt-3L (10 ng/mL) were added as indicated. Cultures were maintained in a 5% CO2/5% O2/90% N2 environment for the first 8 days and then transferred to a 5% CO2/air environment. All recombinant factors are human and were purchased from R&D Systems (Minneapolis, Minn.).” left out
Limiting dilution assays (LDA) of CD34+CD43− cells isolated from either Activin A induced or SB-treated EBs were performed by serial dilutions. […] The presence of CD45+CD7+CD43+CD5+ cells was scored. Progenitor frequencies were determined by the method of maximum likelihood applied to the Poisson model (Groth, 1982).

[4] = test system: CD34+CD43− populations; test: OP9-DL1 co-culture for erythroid/myeloid differentiation followed by colony assay; details: 7 days of co-culture on OP9-DL1; FIG. 6C
Description: Sorted cells were cultured at a concentration of 2×10^4 cells per well on irradiated OP9-DL1 monolayers in OP9 media with VEGF (5 ng/mL), TPO (30 ng/mL), SCF (50 ng/mL), Flt3 (10 ng/mL), IL-11 (5 ng/mL), and BMP-4 (10 ng/mL) in 24-well plates for 7 days. Cells were harvested as above. Analysis of hematopoietic colony potential was performed by plating either 5×103-2.5×10^4 sorted cells or 2.5×104-5.0×104 unfractionated EB populations in 1% methylcellulose containing specific cytokines as described in detail previously (Kennedy et al., 2007). Colonies consisting of erythroid, erythroid/myeloid and myeloid (either macrophage or mast cell) cells were quantified after 10-14 days.

**Q.** What does the source list for NC(=O)c1ccc(-c2nc(-c3ccc4c(c3)OCO4)c(-c3ccccn3)[nH]2)cc1 [SB-431542]?
**A.** erythroid progenitors in SB-treated EBs ([1]; any of the timepoints assayed, FIG. 4D): not detected; erythroid progenitors in day 13 EBs ([1]; treatment between days 2 and 4 of differentiation, Activin A at increasing concentrations, FIG. 1C): eliminated almost all erythroid progenitors; levels of phospho-SMAD2 (densitometry) [2]: significantly reduced; frequency of T cell progenitors in SB-treated CD34+ population relative to Activin A-induced CD34+CD43− population [3]: more than 3 fold; numbers of erythroid and erythroid-myeloid progenitors versus Activin A-induced progenitors [4]: significantly higher numbers
